Experiments:
Assay in all cases: in vitro antibacterial activity, agar dilution MIC
Format in all cases: cell-based
[1] = system: Haemophilis Influenzae DILL AMP R; conditions: organism code WW, BHI agar, 35-37 °C, 20 to 24 hours
Description: (§1) Erythromycin A was used for this purpose.
(§2) After incubation, each plate was visually inspected.

[2] = system: Streptococcus Pheumoniae GYR 1171; conditions: organism code YY, BHI agar, 35-37 °C, 20 to 24 hours
Description: as §1, §2

[3] = system: Nocardia Asteroides ATCC9970; conditions: organism code VV, BHI agar, 35-37 °C, 20 to 24 hours
Description: as §1, §2

[4] = system: Escherichia coli SS; conditions: organism code RR, BHI agar, 35-37 °C, 20 to 24 hours
Description: as §1, §2

[5] = system: Staphylococcus aureus NCTC10649M; conditions: organism code EE, BHI agar, 35-37 °C, 20 to 24 hours
Description: as §1, §2

[6] = system: Enterococcus faecium ATCC 8043; conditions: organism code II, BHI agar, 35-37 °C, 20 to 24 hours
Description: as §1, §2

[7] = system: Streptococcus Pheumoniae 5649; conditions: organism code ZZA, BHI agar, 35-37 °C, 20 to 24 hours
Description: as §1, §2

[8] = system: Staphylococcus epidermidis 3519; conditions: organism code HH, BHI agar, 35-37 °C, 20 to 24 hours
Description: as §1, §2

[9] = system: Micrococcus luteus ATCC 4698; conditions: organism code PP, BHI agar, 35-37 °C, 20 to 24 hours
Description: as §1, §2

[10] = system: Escherichia coli JUHL; conditions: organism code QQ, BHI agar, 35-37 °C, 20 to 24 hours
Description: as §1, §2

[11] = system: Staphylococcus aureus CMX 642A; conditions: organism code DD, BHI agar, 35-37 °C, 20 to 24 hours
Description: as §1, §2

[12] = system: Micrococcus luteus ATCC 9341; conditions: organism code OO, BHI agar, 35-37 °C, 20 to 24 hours
Description: as §1, §2

[13] = system: Staphylococcus aureus CMX 553; conditions: organism code FF, BHI agar, 35-37 °C, 20 to 24 hours
Description: as §1, §2

[14] = system: Streptococcus pyogenes 930; conditions: organism code MM, BHI agar, 35-37 °C, 20 to 24 hours
Description: (§3) Representative compounds of the present invention were assayed in vitro for antibacterial activity as follows: Twelve petri dishes containing successive aqueous dilutions of the test compound mixed with 10 mL of sterilized Brain Heart Infusion (BHI) agar (Difco 0418-01-5) were prepared. Each plate was inoculated with 1:100 (or 1:10 for slow-growing strains, such as Micrococcus and Streptococcus) dilutions of up to 32 different microorganisms, using a Steers replicator block. […] In addition, a control plate, using BHI agar containing no test compound, was prepared and incubated at the beginning and end of each test
(§4) An additional plate containing a compound having known susceptibility patterns for the organisms being tested and belonging to the same antibiotic class as the test compound was also prepared and incubated as a further control, as well as to provide test-to-test comparability.
(§5) After incubation, each plate was visually inspected. The minimum inhibitory concentration (MIC) was defined as the lowest concentration of drug yielding no growth, a slight haze, or sparsely isolated colonies on the inoculum spot as compared to the growth control.

[15] = system: Escherichia coli DC-2; conditions: organism code SS, BHI agar, 35-37 °C, 20 to 24 hours
Description: as §3, §4, §5

[16] = system: Staphylococcus aureus A-5278; conditions: organism code CC, BHI agar, 35-37 °C, 20 to 24 hours
Description: as §3, §4, §5

[17] = system: Candida albicans CCH 442; conditions: organism code TT, BHI agar, 35-37 °C, 20 to 24 hours
Description: as §3, §4, §5

[18] = system: Streptococcus Pheumoniae 5979; conditions: organism code ZZ, BHI agar, 35-37 °C, 20 to 24 hours
Description: as §3, §4, §5

[19] = system: Streptococcus pyogenes PIU 2548; conditions: organism code NN, BHI agar, 35-37 °C, 20 to 24 hours
Description: as §3, §4, §5

[20] = system: Staphylococcus aureus 1775; conditions: organism code GG, BHI agar, 35-37 °C, 20 to 24 hours
Description: as §3, §4, §5

[21] = system: Mycobacterium smegmatis ATCC 114; design: unit not given here; conditions: organism code UU, BHI agar, 35-37 °C, 20 to 24 hours
Description: as §3, §4, §5

[22] = system: Staphylococcus aureus A5177; design: unit not given here; conditions: organism code BB, BHI agar, 35-37 °C, 20 to 24 hours
Description: as §3, §4, §5

[23] = system: Staphylococcus aureus ATCC 6538P; design: unit not given here; conditions: organism code AA, BHI agar, 35-37 °C, 20 to 24 hours
Description: as §1, §2

[24] = system: Streptococcus pyogenes EES61; design: unit not given here; conditions: organism code LL, BHI agar, 35-37 °C, 20 to 24 hours
Description: as §1, §2

[25] = system: Streptococcus Pheumoniae ATCC6303; design: unit not given here; conditions: organism code XX, BHI agar, 35-37 °C, 20 to 24 hours
Description: as §1, §2

[26] = system: Streptococcus agalactiae CMX 508; design: unit not given here; conditions: organism code KK, BHI agar, 35-37 °C, 20 to 24 hours
Description: as §1, §2

[27] = system: Streptococcus bovis A-5169; design: unit not given here; conditions: organism code JJ, BHI agar, 35-37 °C, 20 to 24 hours
Description: as §1, §2

`CC[C@H]1OC(=O)[C@H](C)[C@@H](O[C@H]2C[C@@](C)(OC)[C@@H](O)[C@H](C)O2)[C@H](C)[C@@H](O[C@@H]2O[C@H](C)C[C@H](N(C)C)[C@H]2O)[C@@]2(C)C[C@@H](C)C(=O)[C@H](C)[C@H]3N(CCNC(=O)Cc4ccccc4C=CCO2)C(=O)O[C@]13C` [Example 6, Compound of Formula (I), 2'-R^p is H, 4"-R^p is H, m is 2, A is NH, B is -C(O)-(CH2)q-, q is 1, D is 1,2-phenylene, E is-(CH2)r-CH=CH-, r is 0, n is 1] was tested, and the “minimum inhibitory concentration (MIC)” value [1] was 8, the “minimum inhibitory concentration (MIC)” value [2] was 0.03 and the “minimum inhibitory concentration (MIC)” value [3] was 0.39. For the same compound, the “minimum inhibitory concentration (MIC)” value [4] was 3.1, the “minimum inhibitory concentration (MIC)” value [5] was 1.56 and the “minimum inhibitory concentration (MIC)” value [6] was 0.39. For the same compound, the “minimum inhibitory concentration (MIC)” value [7] was 16, the “minimum inhibitory concentration (MIC)” value [8] was 0.78 and the “minimum inhibitory concentration (MIC)” value [9] was 0.78. For the same compound, the “minimum inhibitory concentration (MIC)” value [10] was 100, the “minimum inhibitory concentration (MIC)” value [11] was 1.56 and the “minimum inhibitory concentration (MIC)” value [12] was 0.1. The “minimum inhibitory concentration (MIC)” value [13] was 0.78, the “minimum inhibitory concentration (MIC)” value [14] was over 100 and the “minimum inhibitory concentration (MIC)” value [15] was over 100. The “minimum inhibitory concentration (MIC)” value [16] was over 100, the “minimum inhibitory concentration (MIC)” value [17] was over 100 and the “minimum inhibitory concentration (MIC)” value [18] was over 128. The “minimum inhibitory concentration (MIC)” value [19] was 12.5, the “minimum inhibitory concentration (MIC)” value [20] was over 100 and the “minimum inhibitory concentration (MIC)” value [21] was 0.39. The “minimum inhibitory concentration (MIC)” value [22] was 12.5, the “minimum inhibitory concentration (MIC)” value [23] was 0.78 and the “minimum inhibitory concentration (MIC)” value [24] was 0.2. For the same compound, the “minimum inhibitory concentration (MIC)” value [25] was 0.03, the “minimum inhibitory concentration (MIC)” value [26] was 0.1 and the “minimum inhibitory concentration (MIC)” value [27] was 0.1.
`CC[C@H]1OC(=O)[C@H](C)[C@@H](O[C@H]2C[C@@](C)(OC)[C@@H](O)[C@H](C)O2)[C@H](C)[C@@H](O[C@@H]2O[C@H](C)C[C@H](N(C)C)[C@H]2O)[C@@]2(C)C[C@@H](C)C(=O)[C@H](C)[C@H]3N(CCC=CCO2)C(=O)O[C@]13C` [Example 17, Compound of Formula (I), R^p is H, m is 2, A is absent, B is absent, D is absen, E is-(CH2)r-CH=CH-, r is 0, n is 1] was tested, and the “minimum inhibitory concentration (MIC)” value [1] was 8, the “minimum inhibitory concentration (MIC)” value [2] was 0.015 and the “minimum inhibitory concentration (MIC)” value [3] was 0.02. The “minimum inhibitory concentration (MIC)” value [4] was 0.78, the “minimum inhibitory concentration (MIC)” value [5] was 0.2 and the “minimum inhibitory concentration (MIC)” value [6] was 0.05. The “minimum inhibitory concentration (MIC)” value [7] was 8, the “minimum inhibitory concentration (MIC)” value [8] was 0.2 and the “minimum inhibitory concentration (MIC)” value [9] was 0.1. The “minimum inhibitory concentration (MIC)” value [10] was over 100, the “minimum inhibitory concentration (MIC)” value [11] was 0.2 and the “minimum inhibitory concentration (MIC)” value [12] was 0.02. For the same compound, the “minimum inhibitory concentration (MIC)” value [13] was 0.1, the “minimum inhibitory concentration (MIC)” value [14] was over 100 and the “minimum inhibitory concentration (MIC)” value [15] was over 100. For the same compound, the “minimum inhibitory concentration (MIC)” value [16] was over 100, the “minimum inhibitory concentration (MIC)” value [17] was over 100 and the “minimum inhibitory concentration (MIC)” value [18] was over 128. For the same compound, the “minimum inhibitory concentration (MIC)” value [19] was 25, the “minimum inhibitory concentration (MIC)” value [20] was over 100 and the “minimum inhibitory concentration (MIC)” value [21] was 0.2. The “minimum inhibitory concentration (MIC)” value [22] was 6.2, the “minimum inhibitory concentration (MIC)” value [23] was 0.1 and the “minimum inhibitory concentration (MIC)” value [24] was 0.02. The “minimum inhibitory concentration (MIC)” value [25] was 0.015, the “minimum inhibitory concentration (MIC)” value [26] was 0.01 and the “minimum inhibitory concentration (MIC)” value [27] was 0.01.
With `CC[C@H]1OC(=O)[C@H](C)[C@@H](O[C@H]2C[C@@](C)(OC)[C@@H](O)[C@H](C)O2)[C@H](C)[C@@H](O[C@@H]2O[C@H](C)C[C@H](N(C)C)[C@H]2O)[C@@]2(C)C[C@@H](C)C(=O)[C@H](C)[C@H]3N(CC(O)CC=CCO2)C(=O)O[C@]13C` (stereo partly drawn) [Example 19, Compound of Formula (I), R^p is H, m is 1, A is absent, B is -CHOH-(CH2)q-, q is 1, D is absent, E is -(CH2)r-CH=CH-, r is 0, n is 1] the “minimum inhibitory concentration (MIC)” value [1] was 8, the “minimum inhibitory concentration (MIC)” value [2] was 0.03 and the “minimum inhibitory concentration (MIC)” value [3] was 0.05. The “minimum inhibitory concentration (MIC)” value [4] was 0.78, the “minimum inhibitory concentration (MIC)” value [5] was 0.78 and the “minimum inhibitory concentration (MIC)” value [6] was 0.1. The “minimum inhibitory concentration (MIC)” value [7] was 16, the “minimum inhibitory concentration (MIC)” value [8] was 0.78 and the “minimum inhibitory concentration (MIC)” value [9] was 0.78. The “minimum inhibitory concentration (MIC)” value [10] was 25, the “minimum inhibitory concentration (MIC)” value [11] was 0.78 and the “minimum inhibitory concentration (MIC)” value [12] was 0.05. The “minimum inhibitory concentration (MIC)” value [13] was 0.78, the “minimum inhibitory concentration (MIC)” value [14] was over 100 and the “minimum inhibitory concentration (MIC)” value [15] was over 100. The “minimum inhibitory concentration (MIC)” value [16] was over 100, the “minimum inhibitory concentration (MIC)” value [17] was over 100 and the “minimum inhibitory concentration (MIC)” value [18] was over 128. For the same compound, the “minimum inhibitory concentration (MIC)” value [19] was 12.5, the “minimum inhibitory concentration (MIC)” value [20] was over 100 and the “minimum inhibitory concentration (MIC)” value [21] was 0.39. The “minimum inhibitory concentration (MIC)” value [22] was 3.1, the “minimum inhibitory concentration (MIC)” value [23] was 0.39 and the “minimum inhibitory concentration (MIC)” value [24] was 0.05. For the same compound, the “minimum inhibitory concentration (MIC)” value [25] was 0.03, the “minimum inhibitory concentration (MIC)” value [26] was 0.05 and the “minimum inhibitory concentration (MIC)” value [27] was 0.02.

Reference: patent EP1027361B1, “6,11-BRIDGED ERYTHROMYCIN DERIVATIVES” (Abbott Laboratories, priority 1997, dated 1999)
